Data set [1] can be described thus: Laundering stability and extractability of the marker in xylene solution (GC against un-laundered reference). It counts as physicochemical. As to conditions: 8 hours; for marker: relative to control = 100. Here is the method: (§1) The stability and extractability of the markers was performed using xylene solutions containing between 100-1000 ppm makers and an equivalent amount of squalene internal reference standard using the following protocols:
Mix 95 parts marked xylenes with 5 parts laundering agent in a 100 mL vial. Mix gently for 8 hours using a magnetic stir bar. Stop mixing and remove a xylene solution aliquot. Analyze by GC and compare marker response to reference (un-laundered) sample.
(§2) Laundering Agents: • 1) 5% sulfuric acid • 2) 98% sulfuric acid • 3) 5% NaOH solution • 4) 50% NaOH solution • 5) Activated charcoal (use 98 parts xylenes solution to 2 parts charcoal) • 6) 5% bleach To test for metal adsorptivity, 100 mL marked xylene tests solution is treated with 5 grams metal shavings at room temperature for 8 hours. GC analysis is again used to determine any loss of marker to the metal surface.

A short description of data set [2]: Metal adsorptivity of the marker from xylene solution (GC). In kind it is physicochemical. Particulars: Metals: 5 grams metal shavings per 100 mL, room temperature, 8 hours. Here is the method:
as §1, §2

This note sets out measurements from patent publication US8574323B2, “Marker compounds for liquid hydrocarbons and other fuels and oils” (Angus Chemical Company, priority 2010, dated 2013).

Regarding `Cc1ccc(C)c(Cc2ccc(-c3ccc(Cc4cc(C)ccc4C)cc3)cc2)c1` [4,4′-bis(2,5-dimethylbenzyl)-1,1′-biphenyl], the “% change” value was −6% in data set [1] (2% charcoal (activated)); −1.75% in data set [1] (5% H2SO4 laundering); −2.79% in data set [1] (5% NaOH laundering); −65% in data set [1] (5% bleach laundering); −1.74% in data set [1] (50% NaOH laundering); 0.47% in data set [1] (98% H2SO4 laundering). In addition, the “% change” value in data set [2] is “+4%”. Moreover, the marker worked out at 94 in data set [1] (2% charcoal (activated)); 98.25 in data set [1] (5% H2SO4 laundering); 102.79 in data set [1] (5% NaOH laundering); 35 in data set [1] (5% bleach laundering); 98.26 in data set [1] (50% NaOH laundering); 100.47 in data set [1] (98% H2SO4 laundering). In data set [2] (relative to control = 100), this compound showed a marker of 104.
